Measured values: PMC7503767, “Alkoxyamines Designed as Potential Drugs against Plasmodium and Schistosoma Parasites” (Molecules, 2020)
Read-outs that look alike come from different tables or passages of the source. Marks after values point to notes of the source that are not given here.

Tests used:
[1] = test system: P. falciparum chloroquine-resistant strain FcB1-Columbia; experiment: Antiplasmodial screen at 10 µM and chemosensitivity assay (SYBR Green I), FcB1-Columbia; type: cell-based, Plasmodium falciparum
[2] = parameters: method as in PMID 23051106, doi:10.1039/c2py20447a; conditions: cited from earlier work
Adult S. mansoni = experiment: In vitro antischistosomal activity on adult worms; type: cell-based, Schistosoma mansoni; conditions: for S. mansoni Mean Survival Time / Time for the death of 100% worms: adult S. mansoni, observation up to 8 h; for S. mansoni Mean Survival Time: single dose 100 µg/mL
Method in brief: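 NMRI-strain adult worms, perfused from hamsters 42–47 days post-infection, held in RPMI 1640 (25 mM Hepes) with Tween 80/DMSO vehicle at 37 °C, 5% CO2 and exposed to 100 µg/mL drug, in duplicate. Moving worms counted hourly up to 8 h; no contraction over 30 s scored dead. Mean survival time from Kaplan–Meier analysis.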

[3] = test system: P. falciparum F32-ART5 (artemisinin-resistant strain); experiment: Standard chemosensitivity assay (SYBR Green I), F32-ART5; type: cell-based, Plasmodium falciparum; conditions: Plasmodium falciparum, F32, 48 h, read-out: P. falciparum Strains Mean IC50, F32-ART5, 48 h; ^1 n = 1, ^2 n = 2
Procedure: (§1) F32-ART5, an artemisinin-resistant strain and F32-TEM, an artemisinin-sensitive strain, were obtained from the parental clone F32-Tanzania, respectively under regular drug pressure cycles of increasing artemisinin concentrations for 5 years and without any artemisinin pressure. After these drug pressure cycles allowing selection of the F32-ART5 strain, regular drug pressures were performed to maintain its phenotype. […] Briefly, parasites were cultured in RPMI 1640 (Fisher Scientific, Waltham, Illkirch-Graffenstaden, France) supplemented with 5% type AB human serum (Etablissement français du Sang, Toulouse, France) and adjusted at a parasitemia of 1% and 2% hematocrit with type O human at 37 °C and 5% CO2. Parasite development was daily monitored by Giemsa staining.
(§2) Briefly, for the determination of IC50 values, the chemosensitivity assay was carried out in 96-well culture plates on D-sorbitol ring-stage synchronized parasites and antiplasmodial activities were evaluated using the SYBR Green I method. Drug testing was performed in triplicates in a dose range of 5 to 7 concentrations. […] Parasites were left to proliferate with the given compounds for 48 h at 37 °C and 5% CO2. After this period, pellets were washed 3 times in sterile PBS prior to putting the plates at −20 °C overnight to lyse all red blood cells. The following day, the plates were thawed at room temperature, 100 µL of each well was transferred into a black 96-well plate to which another 100 µL of 2× PBS-diluted SYBR Green I (Sigma-Aldrich) was added and left to incubate for 2 h at room temperature prior to reading the plates on BioTek FL× 800 Microplate Fluorescence Reader (λexcitation = 485 nm, λemission = 528 nm).
(§3) IC50 values were determined using GraphPad Prism by drawing the curve % inhibition vs. [Drug] and using a four-parameter dose–response curve with the following equation: Y=Bottom+ Top−Bottom/1+x^Hill Slope/IC50Hill Slope

Cytotoxicity assay (MTT) = conditions: African green monkey
Procedure: (§4) Vero cells were cultured in MEM (Dutscher, Brumath, France) supplemented with 10% fetal bovine serum, 1× non-essential amino acids, 100 U/mL, 100 µg/mL penicillin/streptomycin, and 2 mM L-glutamine at 37 °C in a humidified 5% CO2 atmosphere. […] At this time, each well was microscope-examined for detection of possible precipitate formation prior to remove the supernatant by flicking the plate. 100 µL of a 0.5 mg/mL PBS-dissolved MTT tetrazolium (stock solution at 5 mg/mL) was then added to each well [48]. The plates were then incubated for 1 h at 37 °C and 5% CO2 prior to removing the supernatant and adding 100 µL of DMSO. Plates were gently shaken to dissolve formazan crystals resulting from the MTT tetrazolium reduction by living cells and read at 570 nm with BioTek µQuant Microplate Spectrophotometer.

Vero cells = experiment: Cytotoxicity assay (MTT); conditions: ratio cytotoxicity (Vero)/activity on Plasmodium
Procedure: as §4

[4] = test system: P. falciparum F32-TEM (artemisinin-sensitive strain); experiment: Standard chemosensitivity assay (SYBR Green I), F32-TEM; type: cell-based, Plasmodium falciparum; conditions: Plasmodium falciparum
Procedure: as §1, §2, §3

[5] = test system: P. falciparum F32-ART5 (artemisinin-resistant); experiment: Recrudescence assay, F32-ART5; type: cell-based, Plasmodium falciparum; conditions: artemisinin 18 µM, (RS/SR)-2F 5 µM; for Median (Range) Recrudescence Time, F32-ART5: 48 h treatment, followed 30 days
Procedure: (§5) The lead compound, (RS/SR)-2F, was tested in a recrudescence assay, to assess cross-resistance with artemisinin, according to Ménard et al.. Briefly, F32-TEM and F32-ART5 parasites were synchronized at ring-stage by D-sorbitol treatment prior to treating them with the drug of interest for 48 h, then washed and allowed to grow in drug-free medium. Parasitemia was monitored every other day for 30 days to determine the day when parasite cultures reached the t0 initial parasitemia. […] Artemisinin was used as control to confirm differences in recrudescence times between both strains. Three independent experiments were performed for (RS/SR)-2F and artemisinin tested in parallel.

[6] = test system: P. falciparum F32-TEM (artemisinin-sensitive); experiment: Recrudescence assay, F32-TEM; type: cell-based, Plasmodium falciparum; conditions: 48 h treatment; artemisinin 18 µM, (RS/SR)-2F 5 µM; followed 30 days
Procedure: as §5

[7] = Homolysis of the NO–C bond measured by EPR
Procedure: Homolysis rate constants kd’ were measured by EPR and estimated using Equation (1) as reported many times in the literature. Further, Ea and kd were estimated using Equation (2). (1) ln([nitroxide]∞−[nitroxide]t/[nitroxide]∞)=−kd·t (2) Ea=−RT ln([…] kd′ )

[8] = read-out: IC50 on P. falciparum, FcB1-Columbia strain
[9] = Cytotoxicity Mean IC50, Vero cell lines, 48 h, MTT
[10] = F32, 48 h, read-out: P. falciparum Strains Mean IC50, F32-TEM, 48 h, ^1 n = 1, ^2 n = 2
[11] = Plasmodium falciparum, FcB1-Columbia strain, read-out: IC50 on P. falciparum

SMILES | IC50 [1, 8] [µM] | T1/2 in vitro at 37 °C ([2]; aqueous medium) [h] | T1/2 in vitro at 37 °C ([2]; tert-butylbenzene) [h] | S. mansoni Mean Survival Time (Adult S. mansoni) [h] | IC50 [3] [µM] | IC50 at 48 h (Cytotoxicity assay (MTT); [9]) [µM] | Selectivity Index (Vero cells) | IC50 [4, 10] [µM] | IC50 [1, 11] [µM] | Median (Range) Recrudescence Time, F32-ART5 [5] | IC50 at 48 h (Cytotoxicity assay (MTT); Vero cells) [µM] | Median (Range) Recrudescence Time, F32-TEM [6] | activation energy Ea ([7]; t-BuPh) | re-estimated homolysis rate constant kd at 120 °C ([7]; t-BuPh) | Time for the death of 100% worms (Adult S. mansoni; 100 µg/mL) [h] | also measured
CCOP(=O)(OCC)[C@@H](N(O[C@@H](C)c1ccncc1)C(C)(C)C)C(C)(C)C (relative stereo) [(RS/SR)-1a] | > 3 | 48 to 96 | 408 | 1.2 ± 0.1 | 11 | 28 ± 29 | 3 | 7.6 | – | – | – | – | – | – | – | IC50 ([1]; Plasmodium falciparum, FCB1, read-out: IC50 on P. falciparum, FcB1-Columbia strain): 3.8 µM
C[C@@H]1CC[C@H]2[C@@H](C)C(=O)O[C@@H]3O[C@@]4(C)CC[C@@H]1[C@]32OO4 [Artemisinin, reference compound] | – | – | – | – | 0.02 ± 0.002 | – | 8000 | 0.02 ± 0.001 | 0.04 ± 0.007 | 9 (7–11) Days | 160 ± 12 | > 30 (16→30) Days | – | – | – | Mean ± SEM Difference of Recrudescence Time ([5]; F32-TEM versus F32-ART5): > 16.3 ± 3.7 days
CCOP(=O)(OCC)C(N(OC(C)c1cc(-c2ccccn2)nc(-c2ccccn2)c1)C(C)(C)CO)C(C)(C)C (stereo not drawn) [(RS/SR)-2F, Diethyl(1-((1-([2,2′:6′,2′′-terpyridin]-4′-yl)ethoxy)(1-hydroxy-2-methylpropan-2-yl)amino)-2,2-dimethylpropyl)phosphonate] | 0.3 | – | – | 2.1 ± 0.1 | 0.5 ± 0.1 | 0.8 ± 0.3 | 1 | 0.6 ± 0.1 | – | 16 (15–17) Days | – | > 30 days | 119.7 kJ/mol | 29.9 10^−3 s^−1 | – | activation energy Ea ([7]; MeOH/water 1:1 pH = 7.4): 118.2 kJ/mol; re-estimated homolysis rate constant kd at 120 °C ([7]; MeOH/water 1:1 pH = 7.4): 46.7 10^−3 s^−1; half-lifetime t1/2 at 37 °C ([7]; MeOH/water 1:1 pH = 7.4 (aqueous medium)): 64.8 h; homolysis rate constant kd′ ([7]; MeOH/water 1:1 pH = 7.4, 81 °C): 8.7 10^−4s^−1; half-life ([7]; buffer, pH 7.4, half-lifetime t1/2 at 37 °C, MeOH/water 1:1 pH = 7.4 (aqueous medium)): 2 to 4 days; half-life ([7]; half-lifetime t1/2 at 37 °C, t-BuPh): 3 to 5 days; half-lifetime t1/2 at 37 °C ([7]; t-BuPh): 115 h; homolysis rate constant kd′ ([7]; t-BuPh, 81 °C): 5.3 10^−4s^−1
CC(ON1C(C)(C)CC(O)CC1(C)C)c1cc(-c2ccccn2)nc(-c2ccccn2)c1 (racemic) [(R/S)-8F, 1-(1-([2,2′:6′,2′′-Terpyridin]-4′-yl)ethoxy)-2,2,6,6-tetramethylpiperidin-4-ol] | – | – | – | 5.0 ± 0.0 | 1.1 | – | 0.5 | 1.3 | 0.14 | – | 0.7 ± 0.4 | – | 133.3 ^k kJ/mol | 0.46 10^−3 s^−1 | 5 | homolysis rate constant kd′ ([7]; t-BuPh, 111 °C): 1.9 10^−4s^−1; half-life ([7]; tert-butylbenzene, half-lifetime t1/2 at 37 °C, t-BuPh): 941 days; half-life ([7]; tert-butylbenzene, t1/2 at 37 °C): 913 days; IC50 ([4]; F32, read-out: IC50 on the F32 strains, F32-TEM and F32-ART5 taken together): ~1 µM
CCOP(=O)(OCC)[C@@H](N(O[C@H](C)c1ccncc1)C(C)(C)C)C(C)(C)C (relative stereo) [(RR/SS)-1a] | – | 48 to 96 | 408 | >8 | 16 | 17 ± 7 | 1 | 15 | – | – | – | – | – | – | > 8 | Mean (±SD) survival time – Adult S. mansoni (Adult S. mansoni; 100 µg/mL, observation up to 8 h (Table S1)): > 8 h
